Converted amounts (≈) assume the structure as drawn.
Assays:
Cytochrome P450 3A4 = Cytochrome P450 3A4 (Homo sapiens, UniProt P08684); assay: Inhibition of CYP3A4 (unknown origin); format: ADME
Cytochrome P450 2D6 = Cytochrome P450 2D6 (Homo sapiens, UniProt P10635); assay: Inhibition of CYP2D6 (unknown origin); format: ADME
Cytochrome P450 2C19 = Cytochrome P450 2C19 (Homo sapiens, UniProt P33261); assay: Inhibition of CYP2C19 (unknown origin); format: ADME
Cytochrome P450 1A2 = molecular target: T1, Cytochrome P450 1A2 (Homo sapiens, UniProt P05177); assay: Inhibition of CYP1A2 (unknown origin); format: ADME
T1 sequence (P05177 whole entry): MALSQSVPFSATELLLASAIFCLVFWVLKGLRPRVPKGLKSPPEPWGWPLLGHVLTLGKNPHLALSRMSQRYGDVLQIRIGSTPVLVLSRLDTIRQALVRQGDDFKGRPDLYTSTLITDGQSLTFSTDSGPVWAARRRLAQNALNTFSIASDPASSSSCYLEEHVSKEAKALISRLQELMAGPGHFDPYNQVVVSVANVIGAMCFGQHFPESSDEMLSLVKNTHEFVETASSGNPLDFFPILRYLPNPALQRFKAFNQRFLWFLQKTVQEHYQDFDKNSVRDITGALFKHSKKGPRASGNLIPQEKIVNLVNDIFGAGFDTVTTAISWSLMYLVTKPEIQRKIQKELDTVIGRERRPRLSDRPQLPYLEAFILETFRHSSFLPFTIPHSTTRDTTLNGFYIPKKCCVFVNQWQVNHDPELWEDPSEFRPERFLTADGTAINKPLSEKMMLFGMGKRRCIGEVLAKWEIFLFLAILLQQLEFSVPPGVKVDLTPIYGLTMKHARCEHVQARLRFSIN

[1] = molecular target: Voltage-gated inwardly rectifying potassium channel KCNH2 (Homo sapiens, UniProt Q12809); assay: Inhibition of human ERG by dofetilide binding assay
Voltage-gated inwardly rectifying potassium channel KCNH2, sequence (Q12809 whole entry): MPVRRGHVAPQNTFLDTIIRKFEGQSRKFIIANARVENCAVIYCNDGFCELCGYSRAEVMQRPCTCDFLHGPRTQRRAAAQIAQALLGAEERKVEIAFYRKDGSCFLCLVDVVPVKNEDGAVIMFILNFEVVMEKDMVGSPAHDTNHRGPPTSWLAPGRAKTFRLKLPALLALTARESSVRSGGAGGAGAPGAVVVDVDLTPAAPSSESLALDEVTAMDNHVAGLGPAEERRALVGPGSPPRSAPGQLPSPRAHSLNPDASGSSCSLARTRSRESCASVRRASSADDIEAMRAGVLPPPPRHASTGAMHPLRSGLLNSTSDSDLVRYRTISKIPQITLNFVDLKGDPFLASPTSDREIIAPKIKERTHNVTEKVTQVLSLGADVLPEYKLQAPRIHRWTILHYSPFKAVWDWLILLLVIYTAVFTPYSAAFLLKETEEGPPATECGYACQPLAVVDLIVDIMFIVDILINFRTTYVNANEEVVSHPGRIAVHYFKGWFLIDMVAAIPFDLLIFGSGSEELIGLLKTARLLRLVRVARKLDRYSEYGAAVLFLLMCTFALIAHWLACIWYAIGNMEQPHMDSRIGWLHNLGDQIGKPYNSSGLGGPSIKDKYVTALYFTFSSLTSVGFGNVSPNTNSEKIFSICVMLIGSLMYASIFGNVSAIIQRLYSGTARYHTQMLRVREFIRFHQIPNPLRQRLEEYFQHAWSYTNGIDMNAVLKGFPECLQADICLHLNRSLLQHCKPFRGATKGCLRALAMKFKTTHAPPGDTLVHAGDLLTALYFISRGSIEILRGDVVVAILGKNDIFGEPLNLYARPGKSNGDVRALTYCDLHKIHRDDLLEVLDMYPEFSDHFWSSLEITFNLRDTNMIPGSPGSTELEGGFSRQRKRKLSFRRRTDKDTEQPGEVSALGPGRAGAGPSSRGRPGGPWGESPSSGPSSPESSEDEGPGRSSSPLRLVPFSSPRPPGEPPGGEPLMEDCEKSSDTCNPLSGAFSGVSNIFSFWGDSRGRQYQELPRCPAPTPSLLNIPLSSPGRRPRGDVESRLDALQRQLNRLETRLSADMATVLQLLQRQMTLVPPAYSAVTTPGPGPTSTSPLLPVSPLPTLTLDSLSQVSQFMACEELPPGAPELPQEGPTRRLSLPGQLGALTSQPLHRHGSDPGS

[2] = Kinetic solubility in PBS at pH 7.4 by chemiluminescent nitrogen detection assay
[3] = Intrinsic clearance in human liver microsomes measured per mg of protein; format: ADME, Microsome; settings: read-out: CLH
[4] = Intrinsic clearance in mouse liver microsomes measured per mg of protein; format: ADME, Microsome; settings: read-out: CLH
[5] = molecular target: T2, NAD-dependent protein deacetylase sirtuin-3, mitochondrial (Homo sapiens, UniProt Q9NTG7); assay: Inhibition of His-tagged SIRT3 (unknown origin) using KI179 as substrate after 1 hr by spectrophotometric analysis
T2 sequence (Q9NTG7 whole entry): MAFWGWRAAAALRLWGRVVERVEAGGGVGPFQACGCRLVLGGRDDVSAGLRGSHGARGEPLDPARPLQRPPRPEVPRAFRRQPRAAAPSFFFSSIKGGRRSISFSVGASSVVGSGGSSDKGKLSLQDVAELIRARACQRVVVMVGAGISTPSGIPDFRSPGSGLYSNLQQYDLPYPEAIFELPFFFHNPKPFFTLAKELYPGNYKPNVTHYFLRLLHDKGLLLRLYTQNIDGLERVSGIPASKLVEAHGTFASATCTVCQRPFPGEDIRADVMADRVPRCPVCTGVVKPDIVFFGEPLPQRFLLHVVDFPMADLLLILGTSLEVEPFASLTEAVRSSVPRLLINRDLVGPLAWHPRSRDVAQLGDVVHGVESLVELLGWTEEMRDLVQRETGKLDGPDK

[6] = molecular target: T3, NAD-dependent protein deacetylase sirtuin-1 (Homo sapiens, UniProt Q96EB6); assay: Inhibition of GST-tagged SIRT1 (unknown origin) using KI177 as substrate after 1 hr by spectrophotometric analysis
T3 sequence (Q96EB6 whole entry): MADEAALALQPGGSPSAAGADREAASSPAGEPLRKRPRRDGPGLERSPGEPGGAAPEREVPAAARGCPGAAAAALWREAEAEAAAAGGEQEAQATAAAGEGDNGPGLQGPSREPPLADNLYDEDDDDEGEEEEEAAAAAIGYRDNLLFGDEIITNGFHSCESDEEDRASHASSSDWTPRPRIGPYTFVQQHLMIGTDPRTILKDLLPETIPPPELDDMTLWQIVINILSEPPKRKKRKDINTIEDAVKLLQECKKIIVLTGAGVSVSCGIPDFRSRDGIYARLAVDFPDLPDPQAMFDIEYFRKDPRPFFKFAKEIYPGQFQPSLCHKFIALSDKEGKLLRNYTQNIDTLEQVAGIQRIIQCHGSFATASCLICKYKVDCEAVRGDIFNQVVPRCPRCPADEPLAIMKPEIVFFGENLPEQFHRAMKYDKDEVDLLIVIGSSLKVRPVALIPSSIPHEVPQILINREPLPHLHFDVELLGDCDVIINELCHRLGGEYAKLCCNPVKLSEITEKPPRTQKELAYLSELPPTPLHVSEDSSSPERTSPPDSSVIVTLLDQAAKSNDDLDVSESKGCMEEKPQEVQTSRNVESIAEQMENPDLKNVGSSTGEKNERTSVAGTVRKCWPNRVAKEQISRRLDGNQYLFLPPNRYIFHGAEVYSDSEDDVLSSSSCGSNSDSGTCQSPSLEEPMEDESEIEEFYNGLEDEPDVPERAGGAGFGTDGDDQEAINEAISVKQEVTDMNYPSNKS

[7] = molecular target: T4, NAD-dependent protein deacetylase sirtuin-2 (Homo sapiens, UniProt Q8IXJ6); assay: Inhibition of His-tagged SIRT2 (1 to 389) (unknown origin)-mediated deacetylation of Ac-RHKKAcW-NH2 substrate incubated for 20 mins prior to substrate addition measured after 30 mins by mass spectrophotometric analysis
T4 sequence (Q8IXJ6 whole entry): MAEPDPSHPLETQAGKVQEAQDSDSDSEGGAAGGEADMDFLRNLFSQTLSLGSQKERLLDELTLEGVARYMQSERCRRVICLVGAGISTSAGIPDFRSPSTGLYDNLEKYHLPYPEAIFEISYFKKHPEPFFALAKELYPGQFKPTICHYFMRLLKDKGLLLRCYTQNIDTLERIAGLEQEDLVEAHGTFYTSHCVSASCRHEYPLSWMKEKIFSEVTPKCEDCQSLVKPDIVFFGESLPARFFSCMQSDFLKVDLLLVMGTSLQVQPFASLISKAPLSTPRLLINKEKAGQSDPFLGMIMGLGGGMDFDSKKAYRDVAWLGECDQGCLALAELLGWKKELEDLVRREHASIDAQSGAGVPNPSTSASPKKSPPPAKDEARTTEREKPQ

[8] = molecular target: T3, NAD-dependent protein deacetylase sirtuin-1; assay: Inhibition of His-tagged SIRT1 (1 to 747) (unknown origin)-mediated deacetylation of Ac-RHKKAcW-NH2 substrate preincubated for 20 mins measured after 30 mins by mass spectrophotometric analysis
[9] = molecular target: T2, NAD-dependent protein deacetylase sirtuin-3, mitochondrial; assay: Inhibition of human His-tagged SIRT3 (102 to 399) expressed in Escherichia coli BL21(DE3) assessed as inhibition of deacetylation of Ac-RHKKAcW-NH2 substrate preincubated for 20 mins measured after 30 mins by mass spectrophotometric analysis

Cytochrome P450 2D6, sequence (P10635 whole entry): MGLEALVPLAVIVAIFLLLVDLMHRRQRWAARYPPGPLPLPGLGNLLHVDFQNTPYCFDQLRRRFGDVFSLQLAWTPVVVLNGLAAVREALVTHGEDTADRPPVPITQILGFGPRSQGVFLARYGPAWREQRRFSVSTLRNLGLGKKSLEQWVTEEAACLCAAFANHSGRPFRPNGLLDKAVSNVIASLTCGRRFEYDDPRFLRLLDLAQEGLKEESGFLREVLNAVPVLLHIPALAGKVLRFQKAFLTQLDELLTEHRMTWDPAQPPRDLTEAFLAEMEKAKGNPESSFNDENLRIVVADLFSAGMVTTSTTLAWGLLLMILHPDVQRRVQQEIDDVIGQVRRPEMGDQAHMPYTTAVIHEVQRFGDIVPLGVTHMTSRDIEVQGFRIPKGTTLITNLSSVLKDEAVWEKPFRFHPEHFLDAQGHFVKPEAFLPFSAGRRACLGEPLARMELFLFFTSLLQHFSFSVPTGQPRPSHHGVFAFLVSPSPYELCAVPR
Cytochrome P450 2C19, sequence (P33261 whole entry): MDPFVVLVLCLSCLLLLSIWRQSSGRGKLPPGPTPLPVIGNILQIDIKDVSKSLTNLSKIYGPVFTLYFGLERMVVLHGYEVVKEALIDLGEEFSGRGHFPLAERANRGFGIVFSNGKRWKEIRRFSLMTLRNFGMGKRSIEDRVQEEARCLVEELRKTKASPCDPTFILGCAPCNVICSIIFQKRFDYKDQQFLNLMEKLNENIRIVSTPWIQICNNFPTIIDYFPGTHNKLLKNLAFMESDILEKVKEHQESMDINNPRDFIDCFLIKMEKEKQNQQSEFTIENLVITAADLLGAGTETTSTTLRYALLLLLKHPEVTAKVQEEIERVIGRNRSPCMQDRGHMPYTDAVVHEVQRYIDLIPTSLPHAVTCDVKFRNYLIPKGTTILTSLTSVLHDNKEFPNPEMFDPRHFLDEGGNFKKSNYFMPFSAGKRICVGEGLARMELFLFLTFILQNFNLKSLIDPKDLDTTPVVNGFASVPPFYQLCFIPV
Cytochrome P450 3A4, sequence (P08684 whole entry): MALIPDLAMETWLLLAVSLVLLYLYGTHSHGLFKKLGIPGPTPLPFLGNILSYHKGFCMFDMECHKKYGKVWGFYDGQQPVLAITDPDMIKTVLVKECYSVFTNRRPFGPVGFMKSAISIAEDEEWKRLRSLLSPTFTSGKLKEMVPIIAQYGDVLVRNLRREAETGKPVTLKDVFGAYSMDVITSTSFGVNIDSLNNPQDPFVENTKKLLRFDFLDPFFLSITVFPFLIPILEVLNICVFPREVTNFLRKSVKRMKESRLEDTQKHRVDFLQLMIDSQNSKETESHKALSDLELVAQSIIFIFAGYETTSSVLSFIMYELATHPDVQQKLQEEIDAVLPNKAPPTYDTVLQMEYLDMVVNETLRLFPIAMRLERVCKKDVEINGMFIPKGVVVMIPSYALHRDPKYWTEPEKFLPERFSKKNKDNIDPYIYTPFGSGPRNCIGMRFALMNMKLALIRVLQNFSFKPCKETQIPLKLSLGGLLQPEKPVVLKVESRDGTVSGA

solubility kinetic [2] [µM]	IC50 [7] [nM]	IC50 [8] [nM]	SMILES	other results
297 (≈ 116 µg/mL)			CC(C)(C)C(=O)NCCC1CCN(c2ncnc3cc(C(N)=O)sc23)CC1	IC50 (Cytochrome P450 3A4): > 50000 nM; IC50 (Cytochrome P450 2D6): > 50000 nM; IC50 (Cytochrome P450 2C19): > 50000 nM; IC50 (Cytochrome P450 1A2): > 50000 nM; IC50 [1]: > 50000 nM; microsomal CLint [3]: 15.8 µL/min/mg; microsomal CLint [4]: 12.7 µL/min/mg
9 (≈ 4.38 µg/mL)			CCNC(=O)c1ccc(C(=O)NCCC2CCN(c3ncnc4cc(C(N)=O)sc34)CC2)s1	
	1.8	6.7	CC(C)(C)OC(=O)c1ccc(C(=O)NCCC2CCN(c3ncnc4cc(C(N)=O)sc34)CC2)s1	
	5.4		CC(C)(C)OC(=O)NCCC1CCN(c2ncnc3cc(C(N)=O)sc23)CC1	
	4.4		NC(=O)c1cc2ncnc(N3CCC(CCNC(=O)c4ccc(C(=O)O)s4)CC3)c2s1	

The remaining lines, values behind:

SMILES	solubility kinetic [2] [µM]	IC50 [7] [nM]	IC50 [8] [nM]	other results
CCCCC[C@H]1CC(=O)c2cc(Cl)cc(Br)c2O1				IC50 [5]: > 200000 nM; IC50 [6]: > 200000 nM
NC(=O)c1cc2ncnc(N3CCC(CCNC(=O)c4cccs4)CC3)c2s1		6.5	5.8	
CCNC(=O)c1cccc(C(=O)NCCC2CCN(c3ncnc4cc(C(N)=O)sc34)CC2)c1	19 (≈ 9.13 µg/mL)	1.3	5.3	IC50 [9]: 4.9 nM
CS(=O)(=O)NCCC1CCN(c2ncnc3cc(C(N)=O)sc23)CC1		1.1		
CC(C)(C)C(=O)NCCC1CCN(c2ncnc3cc(C(=O)O)sc23)CC1		> 50000	> 50000	
CCNC(=O)c1cccc(C(=O)NCCN2CCN(c3ncnc4cc(C(N)=O)sc34)CC2)c1	220 (≈ 106 µg/mL)			
CCNC(=O)c1ccc(C(=O)NCCN2CCN(c3ncnc4cc(C(N)=O)sc34)CC2)s1	65 (≈ 31.7 µg/mL)	4.8		

Reference: ChEMBL document CHEMBL2331260, “Discovery of thieno[3,2-d]pyrimidine-6-carboxamides as potent inhibitors of SIRT1, SIRT2, and SIRT3” (J Med Chem, 2013)
